Test results from US10111921B2, “Regulation of brain biogenic amines associated with depression by a formulation from botanical source” (GoVind Prasad Dubey, priority 2014, dated 2018).
Marks after values point to notes of the source that are not given here.

Legend:
[1] = system: mild to moderate depression; assay: Clinical symptomatology (in percent), clinical trial; type: in vivo, human
Method: (§1) In the present study 99 cases between the age group of 20 to 60 years presenting the symptoms of mild to moderate depression were selected for clinical trial of test formulation containing extract of Nyctanthes arbor-tristis, Ocimum tenuiflorum and Hippophae salicifolia. The subjects were advised to take test formulation twice in a day in two divided doses (475 mg morning and 475 mg in the evening). The level of mood was measured by Major Depression Inventory (MDI) developed by Olsen L R et al (2003), the fatigue and psychomotor performance was measured by Mental Fatigue Apparatus and Rotary Pursuit Task. These tests and test battery are recommended by Gupta and Dubey (1994) for the scientific and objective assessment in the area of drug development. The behavioral pattern was repeatedly assessed at the continuous interval of one month for six months.

[2] = system: minor depressive cases; assay: Mental fatigue level (Mental Fatigue Apparatus), clinical trial; type: in vivo, human
Method: as §1

[3] = system: minor depressive cases; assay: Rotatory pursuit task (psychomotor coordination), clinical trial; type: in vivo, human
Method: as §1

[4] = system: depressive disorder cases; assay: Anxiety level (score), clinical trial; type: in vivo, human
Method: as §1

[5] = system: depressive disorder cases; assay: Mental fatigue (Time), clinical trial; type: in vivo, human
Method: as §1

[6] = system: depression patients; assay: Attention span (score), clinical trial; type: in vivo, human
Method: as §1

[7] = system: GABA; assay: GABA level in depression cases; type: in vivo, human
Method: as §1

[8] = system: Glutamate; assay: Glutamate level in depression cases; type: in vivo, human
Method: as §1

[9] = system: Platelet MAO; assay: Platelet MAO activity in depressive disorder cases; type: in vivo, human
Method: as §1

[10] = system: Glutamate; assay: Column headed Glutamate (nmol/mg/hr) in platelet MAO table, depressive disorder cases; type: in vivo, human; conditions: After 6 months; clinical Table 8
Source text: (§2) In the present study 99 cases between the age group of 20 to 60 years presenting the symptoms of mild to moderate depression were selected for clinical trial of test formulation containing extract of Nyctanthes arbor-tristis, Ocimum tenuiflorum and Hippophae salicifolia. […] The behavioral pattern was repeatedly assessed at the continuous interval of one month for six months.

[11] = system: Epinephrine; assay: Epinephrine level in depressive cases; type: in vivo, human; conditions: Initial
Source text: as §2

[12] = system: IL-1 β; assay: Interleukin-1 β concentration in mild to moderate depressive patients; type: in vivo, human
Method: as §1

[13] = system: TNF-α; assay: TNF-α in mild to moderate depressive patients; type: in vivo, human
Method: as §1

[14] = system: DHA; assay: DHA content in mild to moderate depressive patients; type: in vivo, human
Method: as §1

[15] = system: depression cases; assay: Occipito frontalis muscle action potential in depression cases; type: in vivo, human
Method: as §1

[16] = system: depression cases; assay: Delta wave in depression cases; type: in vivo, human
Method: as §1

[17] = system: Neuro-peptide-γ; assay: Neuro-peptide-γ content in depressed patients; type: in vivo, human
[18] = system: depressive patients; assay: Sleep pattern by polysomnographic studies in depressive patients; type: in vivo, human
Method: as §1
In control series (Sertraline treated) all the investigations were repeated and compared with the treated group.
There is an increase in DHA content after oral administration of test formulation for 6 months (Table-12). […] Neuro-peptide-γ is the 36-amino acid which affects anxiety, stress, pain, circadian rhythm and also associated various psychiatric disorders particularly depression of varying degree. […] The effect of test formulation on sleep pattern measured by recording on polysomnographic studies indicated improvement in sleep period, total sleep, sleep latency and various stages of sleep. Though none of the cases could achieve the stage four. The results obtained in the test formulation treatment group were compared with the conventional drug treated group and exerted significant difference when the conventional treated group was compared with the test formulation treated group (Table-16-17). The drug was found safe and effective after 6 months of continuous oral administration to depressed patients.

[19] = system: Melatonin; assay: Melatonin level in brain, experimental sleep deprivation stress model; type: in vivo, rats of Charles foster strain; conditions: 7 days sleep deprivation stress + drug, 10 rats
Method: In this group the sleep deprivation stress was introduced along with the hydro-alcoholic extract of three plants Nyctanthes arbor-tristis, Ocimum tenuiflorum and Hippophae salicifolia. […] On 7th day (after two hours of administration of test drug) different parts of the rat's brain were dissected and 5-HT, melatonin GABA. glutamate and histamine were measured. […]

[20] = system: GABA; assay: GABA content in the brain following experimental sleep deprivation stress; type: in vivo, rats of Charles foster strain; conditions: 7 days sleep deprivation stress + drug, 10 rats
Source text: (§3) The study is divided into four groups, 10 rats of Charles foster strain were kept in each study group.
(§4) In control group 10 rats were selected and kept on normal saline for 7 days. On 7th days the animals were sacrificed and various biogenic amines like 5-HT GABA & glutamate, melatonin and MAO were estimated. After dissection of rat's brain the biogenic amines were estimated in thalamus, hypothalamus and cortex.
(§5) In this group sleep deprivation stress for 7 days was given to all the 10 rats. After 7 days the rat's brain were dissected and thalamus, hypo-thalamus and cortex were separated for the measurement of brain biogenic amines.
(§6) In this group the sleep deprivation stress was introduced along with the hydro-alcoholic extract of three plants Nyctanthes arbor-tristis, Ocimum tenuiflorum and Hippophae salicifolia. The drug Nyctanthes arbor-tristis (100 mg/kg bw./day), Ocimum tenuiflorum (50 mg/kg bw./day), Hippophae salicifolia (50 mg/kg bw./day) was given in combined form to all the 10 rats along with sleep deprivation stress. On 7th day (after two hours of administration of test drug) different parts of the rat's brain were dissected and 5-HT, melatonin GABA. glutamate and histamine were measured.
(§7) On 7th days the animals were sacrifice and brain biogenic amines were estimated in different parts of rat's brain.
(§8) The value obtained were compared with each other group (Normal vs sleep deprivation stress and sleep deprivation stress vs sleep deprivation stress+test formulation and sleep deprivation stress vs modern drug treatment group. Apart from initial at 7 day before sacrificing the animals circulating biogenic amines were also measured in all the three groups.

[21] = system: Glutamate; assay: Glutamate level in brain following experimental sleep deprivation stress; type: in vivo, rats of Charles foster strain; conditions: 7 days sleep deprivation stress + drug, 10 rats
Source text: as §3, §4, §5, §6, §7, §8

[22] = system: GABA; assay: Circulating GABA following experimental sleep deprivation stress; type: in vivo, rats of Charles foster strain; conditions: 7 days sleep deprivation stress + drug, 10 rats
Method: as §3, §6, §7, §8

[23] = system: Glutamate; assay: Circulating glutamate following experimental sleep deprivation stress; type: in vivo, rats of Charles foster strain; conditions: 7 days sleep deprivation stress + drug, 10 rats
Method: as §3, §6, §7, §8

[24] = system: MAO; assay: Circulating MAO following experimental sleep deprivation stress; type: in vivo, rats of Charles foster strain; conditions: 7 days sleep deprivation stress + drug, 10 rats
Method: as §3, §6, §7, §8

[25] = system: Histaminase; assay: Circulating histaminase following experimental sleep deprivation stress; type: in vivo, rats of Charles foster strain; conditions: 7 days sleep deprivation stress + drug, 10 rats
Method: as §3, §6, §7, §8

Compound: CN[C@H]1CC[C@@H](c2ccc(Cl)c(Cl)c2)c2ccccc21 [Sertraline]
- Early fatiguability ([1]; After 6 months): 91.12* percent
- Lack of interest ([1]; After 6 months): 92.20* percent
- Pessimistic thinking ([1]; After 6 months): 95.86* percent
- Poor appetite ([1]; After 6 months): 50.03* percent
- Poor concentration ([1]; After 6 months): 86.02* percent
- Poor sleep ([1]; After 6 months): 79.41* percent
- Psychomotor retardation ([1]; After 6 months): 78.09* percent
- Weight loss ([1]; After 6 months): 40.32* percent
- Early fatiguability ([1]; Initial): 98.01%
- Lack of interest ([1]; Initial): 97.82%
- Pessimistic thinking ([1]; Initial): 96.27%
- Poor appetite ([1]; Initial): 58.89%
- Poor concentration ([1]; Initial): 88.41%
- Poor sleep ([1]; Initial): 98.04%
- Psychomotor retardation ([1]; Initial): 74.66%
- Weight loss ([1]; Initial): 42.01%
- Mental fatigue level ([2]; After 2 months): 19.68 Hz
- Mental fatigue level ([2]; After 4 months): 19.02 Hz
- Mental fatigue level ([2]; After 6 months): 18.45 Hz
- Mental fatigue level ([2]; Initial): 18.22 Hz
- Rotatory pursuit task ([3]; After 2 months): 28.03 Hz
- Rotatory pursuit task ([3]; After 4 months): 27.47 Hz
- Rotatory pursuit task ([3]; After 6 months): 26.52 Hz
- Rotatory pursuit task ([3]; Initial): 28.39 Hz
- Anxiety level ([4]; After 6 months): 58.5 score
- Anxiety level ([4]; Initial): 56.5 score
- Mental fatigue (Time) ([5]; After 6 month): 90.3
- Mental fatigue (Time) ([5]; Initial): 94.5
- Attention span ([6]; After 6 months): 9.32 Score
- Attention span ([6]; Initial): 10.49 Score
- GABA ([7]; After 6 months): 1.410 µmol/mL
- GABA ([7]; Initial): 1.070 µmol/mL
- Glutamate ([8]; After 6 months): 0.385 µmol/mL
- Glutamate ([8]; Initial): 0.419 µmol/mL
- Platelet MAO ([9]; After 6 months): 5.98 nmol/mL/h
- Platelet MAO ([9]; Initial): 5.04 nmol/mL/h
- Glutamate [10]: 4.23 nmol/mg/h
- Epinephrine [11]: 5.32 ng/mL
- IL-1 β ([12]; After 2 months): 1.886 µg/mL
- IL-1 β ([12]; After 4 months): 1.923 µg/mL
- IL-1 β ([12]; After 6 months): 1.790 µg/mL
- IL-1 β ([12]; Initial): 2.098 µg/mL
- TNF-1 α ([13]; After 2 months): 3.71 ng/mL
- TNF-1 α ([13]; After 4 months): 3.85 ng/mL
- TNF-1 α ([13]; After 6 months): 4.14 ng/mL
- TNF-1 α ([13]; Initial): 4.82 ng/mL
- DHA ([14]; After 2 months): 1.082 g/100 g of total fatty acid
- DHA ([14]; After 4 months): 1.920 g/100 g of total fatty acid
- DHA ([14]; After 6 months): 1.980 g/100 g of total fatty acid
- DHA ([14]; Initial): 1.096 g/100 g of total fatty acid
- Occipito frontalis muscle action potential ([15]; After 2 months): 41.75
- Occipito frontalis muscle action potential ([15]; After 4 months): 42.82
- Occipito frontalis muscle action potential ([15]; After 6 months): 40.86
- Occipito frontalis muscle action potential ([15]; Initial): 4.378
- Delta Wave ([16]; After 2 months): 0.94 Hz
- Delta Wave ([16]; After 4 months): 1.06 Hz
- Delta Wave ([16]; After 6 months): 1.02 Hz
- Delta Wave ([16]; Initial): 0.68 Hz
- Neuro-peptide-γ ([17]; After 2 months): 148.90 pg/mL
- Neuro-peptide-γ ([17]; After 4 months): 151.89 pg/mL
- Neuro-peptide-γ ([17]; After 6 months): 156.04 pg/mL
- Neuro-peptide-γ ([17]; Initial): 129.68 pg/mL
- Sleep Latency ([18]; After 6 months treatment): 14.98 min
- Sleep period ([18]; After 6 months treatment): 438.35 min
- Stage-I (Time in min) ([18]; After 6 months treatment): 162.98 min
- Stage-II (Time in min) ([18]; After 6 months treatment): 46.22 min
- Stage-III (Time in min) ([18]; After 6 months treatment): 15.82 min
- Total Sleep ([18]; After 6 months treatment): 201.94 min
- Sleep Latency ([18]; Before treatment): 13.62 min
- Sleep period ([18]; Before treatment): 445.90 min
- Stage-I (Time in min) ([18]; Before treatment): 179.32 min
- Stage-II (Time in min) ([18]; Before treatment): 45.82 min
- Stage-III (Time in min) ([18]; Before treatment): 18.22 min
- Total Sleep ([18]; Before treatment): 234.98 min

Compound: CNC1=Nc2ccc(Cl)cc2C(c2ccccc2)=[N+]([O-])C1 [Librium]
- Melatonin, Hypothalamus ([19]; hypothalamus): 7.80 ± 1.02 μg/gm in wet tissue
- Melatonin, Thalamus ([19]; thalamus): 5.95 ± 1.85 μg/gm in wet tissue
- GABA, Cortex ([20]; cortex): 2.62 ± 0.59 μmol/gm in wet tissue
- GABA, Hypothalamus ([20]; hypothalamus): 4.68 ± 1.02 μmol/gm in wet tissue
- GABA, Thalamus ([20]; thalamus): 3.91 ± 0.58 μmol/gm in wet tissue
- Glutamate, Cortex ([21]; cortex): 13.97 ± 2.11 μmol/gm in wet tissue
- Glutamate, Hypothalamus ([21]; hypothalamus): 12.66 ± 3.06 μmol/gm in wet tissue
- Glutamate, Thalamus ([21]; thalamus): 11.64 ± 3.01 μmol/gm in wet tissue
- GABA (circulating) [22]: 1.02 ± 0.18 µmol/mL
- Glutamate (circulating) [23]: 1.11 ± 0.10 µmol/mL
- MAO (circulating) [24]: 4.72 ± 0.89 nmol/m//hrs.
- Histaminase (circulating) [25]: 35.46 ± 4.95 µg/mL
